{"source": "paper PMC11299522", "about": "(Journal of medicinal chemistry, 2023)", "key": {"μOR": {"tested_on": "μOR", "details": "cited from earlier work"}, "[1]": {"tested_on": "wild-type (WT) HEK293 cells", "assay": "Pink Flamindo cAMP assay control in wild-type HEK293 cells lacking μORs", "assay_type": "cell-based", "details": "compound 1 μM, AUC analysis, n = 3"}}, "data": [{"compound": "[D-Ala,[2] N-MePhe,[4] Gly-ol]-enkephalin [DAMGO]", "values": [{"measurement": "EC100", "setting": "μOR", "value": 250, "unit": "nM"}]}, {"compound": "C=C(C)[C@@H]1CCC(C)=C[C@H]1c1c(O)cc(CCCCC)cc1O", "note": "[JGC1, (1′R,2′R)-5′-Methyl-4-pentyl-2′-(prop-1-en-2-yl)-1′,2′,3′,4′-tetrahydro-[1,1′-biphenyl]-2,6-diol]", "values": [{"measurement": "effect on cAMP accumulation in the absence of the hμOR", "setting": "[1]", "value": "do not impact cAMP accumulation"}]}]}
